Where “and” joins values, the source holds several entries; their conditions need not be identical. Equal values may be shown once.
Assays:
Jurkat = assay: Cell cycle distribution by flow cytometry, Jurkat; type: cell-based, human; conditions: 10 μM, 48 hours
Description: (§1) Cell viability was determined by Cell Counting Kit-8 (CCK-8, Dojindo, Kumamoto, Japan) as described previously (31). Cell viability was calculated relative to the DMSO control. Cell cycle profile was analyzed by flow cytometry as described previously (32).

BT474 = BT474 cell growth inhibition; type: cell-based, human; conditions: Homo sapiens, BT-474, 72 h; 3 days, CCK-8, vs DMSO; read-out: IC50, BT474 (Breast)
Description: (§2) In FIG. 9-24 in vitro IC50 values for the GGTase I activity are reported. In Tables 7-15 in cell GI50 values for the growth inhibition of a variety of cancer cell lines (e.g., Jurkat, K562, MDA-MB-231, BT474, MCF7, MiaPaCa2, Aspc-1, Panc-1, Capan-2, CFpac-1, and MCF10a) are reported.
as §1

CFpac-1 = CFpac-1 cell growth inhibition; type: cell-based, human; conditions: Homo sapiens, CFPAC-1, 72 h; 3 days, CCK-8, vs DMSO; read-out: IC50, CFpac-1 (Pancreas)
Description: as §2, §1

[1] = Pharmacokinetics (serum levels) after IP dosing; type: in vivo, mice; conditions: 1.16 mg/kg
Excerpt: This may be due to slow metabolism of the compound. […] Thus, in some embodiments, the compositions of the invention can be administered is a dosage regimen that is highly convenient, e.g., once weekly instead of daily. The compositions of the present invention can be administered every 1, 2, 3, 4, 5, 6, or 7 days, or may be administered otherwise.

Jurkat cells = assay: Jurkat cell growth inhibition; type: cell-based, human; conditions: Homo sapiens, Jurkat, 72 h; 3 days, CCK-8, vs DMSO; read-out: IC50, Jurkat (Blood)
Procedure, shortened: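 Jurkat T-cell leukemia cells were exposed to compound for 72 h, with cell number counted and viability read by CCK-8 relative to the DMSO control. GI50 is the compound concentration giving 50% growth inhibition.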

p21CIP1/WAF1 promoter = assay: p21 promoter luciferase reporter assay in NIH3T3 cells; type: cell-based; conditions: NIH3T3, 48 hours, dose dependent
Description: For the p21^WAF1/CIP1 promoter luciferase assay, NIH3T3 cells were transfected with p21^WAF1/CIP1 promoter-Luc or vector plasmids (33) (both plasmids are provided by Dr. Genhong Cheng). Cells were treated with GGTI compounds. Promega luciferase assay kit was used according to the manufacturer's protocol.
Another mechanism through which GGTI can effect cell cycle progression is to inhibit RhoA which negatively regulates expression of a Cdk inhibitor p21^CIP1/WAF1. To investigate whether the GGTI compounds described herein can induce p21^CIP1/WAF1 expression, luciferase transcriptional activation from the p21^CIP1/WAF1 promoter (33) was measured. Transient expression systems with NIH3T3 cells were used to examine the ability of P61-A6 to induce p21^CIP1/WAF1-luciferase expression. P61-A6 induced significant (4-fold) inductions of luciferase activity versus DMSO in a dose dependence manner (FIG. 37C).

Capan-2 = Capan-2 cell growth inhibition; type: cell-based, human; conditions: Homo sapiens, Capan-2, 72 h; 3 days, CCK-8, vs DMSO; read-out: IC50, Capan-2 (Pancreas)
Description: as §2, §1

MDA-MB-231 = MDA-MB-231 cell growth inhibition; type: cell-based, human; conditions: Homo sapiens, MDA-MB-231, 72 h; 3 days, CCK-8, vs DMSO; read-out: IC50, MDA-MB-231 (Breast)
Description: as §2, §1

MiaPaCa2 = MiaPaCa2 cell growth inhibition; type: cell-based, human; conditions: Homo sapiens, MIA PaCa-2, 72 h; 3 days, CCK-8, vs DMSO; read-out: IC50, MiaPaCa2 (Pancreas)
Description: as §2, §1

HPAC = HPAC cell growth inhibition; type: cell-based; conditions: Homo sapiens, 72 h, 3 days, CCK-8, vs DMSO, read-out: IC50, HPAC (Pancreas)
Description: as §1

MCF7 = MCF7 cell growth inhibition; type: cell-based, human
Description: as §2, §1

[2] = test system: geranylgeranylated Rheb (Rheb-CSVL) in HEK 293 cells; assay: Rheb-CSVL mobility shift in HEK 293 cells; type: cell-based, human; conditions: 48 hours
Excerpt: Finally, we investigated in vivo effects of compounds 22 (also known as UC-22) and 23 (also known as UC-23). Human embryonic kidney (HEK) 293 cells were transfected with the Rheb-CSVL construct that expresses the geranylgeranylated form of the Rheb protein. Inhibition of the geranylgeranylation of this protein can be detected from a shift in its mobility on SDS polyacrylamide gel; the unprocessed form appears as a slowly migrating band.
Human embryonic kidney (HEK) 293 cells expressing Myc-HA tagged-Rheb-CVSL (upper) or Myc-HA tagged-Rheb-WT (lower) were treated with P3-E5 for 48 hours and then lysed. The cell lysates were run on a SDS polyacrylamide gel and immunoblotted using anti-Myc or anti-Actin antibody. The descriptors P and U indicate processed and unprocessed Rheb, respectively.
Human embryonic kidney (HEK) 293 cells expressing Myc-HA tagged-Rheb-CVSL (upper) or Myc-HA tagged-Rheb-WT (lower) were treated with mP5-H6a (also referred to as mP5-H6), or GGTI-298 for 48 hours and then lysed. Lysates were run on a SDS polyacrylamide gel and immunoblotted with anti-Myc or anti-Actin antibody.

Row | IC50 (BT474) [µM] | Clearance ([1]; IP) [mL/h] | Cmax ([1]; mouse, serum, ip) | half-life ([1]; mouse, serum, ip) [h] | AUC(0-t) ([1]; mouse, serum, ip, read-out: AUC0-4 h) [ng·h/mL] | IC50 (Jurkat cells) [µM] | IC50 (MDA-MB-231) [µM] | IC50 (MiaPaCa2) [µM] | IC50 (MCF7; Homo sapiens, MCF7, 144 h, 6 days, CCK-8, vs DMSO, read-out: IC50, MCF-7 (Breast)) [µM] | SMILES | Percent G2/M, Jurkat (Jurkat; DMSO 11.80) [%] | Percent G0/G1, Jurkat (Jurkat; DMSO 46.92) [%] | IC50 (CFpac-1) [µM] | induction of p21CIP1/WAF1-luciferase activity versus DMSO (p21CIP1/WAF1 promoter) [fold] | IC50 (Capan-2) [µM] | IC50 (HPAC) [µM] | inhibition of proliferation of MCF-7 (MCF7; 72 hours, FIG. 37A) | inhibition of geranylgeranylation of Rheb-CSVL (slowly migrating unprocessed band) [2]
1 | 8.5 | 1.04 | 13000 ng/mL and 22.4 µM | 16.9 | 22200 | 2.9 | 8.7 | 4.7 | 4.5 | Cc1ccccc1S(=O)(=O)N1C(c2ccc(Cl)cc2)C(C(=O)NC(Cc2ccccc2)C(N)=O)=CC1C(C)(C)C (centres unmarked) [P61-A6] | 11.60 | 57.87 | 6.3 | 4 | 11.5 | 3.9 | dose-dependent inhibition of proliferation | 
2 |  |  |  |  |  |  |  |  |  | Cc1ccccc1S(=O)(=O)N1[C@@H](c2cccc(Cl)c2)C(C(=O)O)=CC[C@H]1c1ccc(Cl)cc1 [P3-E5] |  |  |  |  |  |  |  | inhibits geranylgeranylation in cells

— US8815935B2, “Inhibitors of protein prenyltransferases” (The Regents of the University of California, priority 2008, dated 2014)
